# In patent US20230365584A1, “HETEROCYCLIC PERICONDENSED CDC7 KINASE INHIBITORS FOR THE TREATMENT OF CANCER” (SCHRÖDINGER, INC., priority 2020, published 2023):
# pIC50: −log10 of the molar value.
# Target: Full length human CDC7 protein co-expressed with DBF4 (Homo sapiens (Human), UniProt O00311)
# Assay: CDC7 kinase biochemical assay (ADP-Glo, PDKtide substrate)
# Details: 0.1 nM CDC7/DBF4, 1 uM ATP, 10 uM PDKtide, 4 h
# Protocol: CDC7 Kinase Biochemical Assay Protocol:
# Full length human CDC7 protein co-expressed with DBF4 was purchased from SignalChem (China). CDC7 kinase activity was determined with PDKtide (SignalChem) as a substrate and by measuring ADP production using the ADP-Glo™ Kinase Assay kit (Promega) following the manufacturers instructions. The kinase reaction was performed using the following conditions: Buffer: 40 mM Tris pH 7.5, 20 mM MgCl2, 0.1 mg/ml BSA and 50 uM DTT. Final reaction mix contained 0.1 nM CDC7/DBF4, 1 uM ATP and 10 uM PDKtide. The kinase reaction time was 4 h. The ADP-Glo signal was measured using an EnVision plate reader (PerkinELmer).
# Percent inhibition of CDC7 kinase activity was calculated based on the following formula:
# [formula] • Ssample: the signal of compounds • SHigh Ctrl: the signal of high control (DMSO) • SLow Ctrl: the signal of low control (positive control CDC7 inhibitor)
# Chain of Full length human CDC7 protein co-expressed with DBF4 (O00311 whole entry): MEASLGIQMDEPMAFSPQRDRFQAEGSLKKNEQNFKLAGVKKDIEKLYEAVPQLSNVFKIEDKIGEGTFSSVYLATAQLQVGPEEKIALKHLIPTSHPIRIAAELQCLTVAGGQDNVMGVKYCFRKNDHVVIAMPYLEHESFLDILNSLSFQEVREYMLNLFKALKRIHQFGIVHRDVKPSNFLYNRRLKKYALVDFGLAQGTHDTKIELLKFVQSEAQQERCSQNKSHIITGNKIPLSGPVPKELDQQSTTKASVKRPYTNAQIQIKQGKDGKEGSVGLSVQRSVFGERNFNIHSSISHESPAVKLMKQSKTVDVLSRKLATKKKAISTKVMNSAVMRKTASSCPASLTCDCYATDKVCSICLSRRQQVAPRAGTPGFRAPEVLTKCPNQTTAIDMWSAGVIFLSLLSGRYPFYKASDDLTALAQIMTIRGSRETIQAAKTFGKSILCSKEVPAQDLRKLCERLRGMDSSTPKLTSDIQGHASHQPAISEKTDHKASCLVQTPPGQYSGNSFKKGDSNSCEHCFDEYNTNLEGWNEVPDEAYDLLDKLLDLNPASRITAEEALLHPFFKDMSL
# Chain of Full length human CDC7 protein co-expressed with DBF4 (Q9UBU7 whole entry partner): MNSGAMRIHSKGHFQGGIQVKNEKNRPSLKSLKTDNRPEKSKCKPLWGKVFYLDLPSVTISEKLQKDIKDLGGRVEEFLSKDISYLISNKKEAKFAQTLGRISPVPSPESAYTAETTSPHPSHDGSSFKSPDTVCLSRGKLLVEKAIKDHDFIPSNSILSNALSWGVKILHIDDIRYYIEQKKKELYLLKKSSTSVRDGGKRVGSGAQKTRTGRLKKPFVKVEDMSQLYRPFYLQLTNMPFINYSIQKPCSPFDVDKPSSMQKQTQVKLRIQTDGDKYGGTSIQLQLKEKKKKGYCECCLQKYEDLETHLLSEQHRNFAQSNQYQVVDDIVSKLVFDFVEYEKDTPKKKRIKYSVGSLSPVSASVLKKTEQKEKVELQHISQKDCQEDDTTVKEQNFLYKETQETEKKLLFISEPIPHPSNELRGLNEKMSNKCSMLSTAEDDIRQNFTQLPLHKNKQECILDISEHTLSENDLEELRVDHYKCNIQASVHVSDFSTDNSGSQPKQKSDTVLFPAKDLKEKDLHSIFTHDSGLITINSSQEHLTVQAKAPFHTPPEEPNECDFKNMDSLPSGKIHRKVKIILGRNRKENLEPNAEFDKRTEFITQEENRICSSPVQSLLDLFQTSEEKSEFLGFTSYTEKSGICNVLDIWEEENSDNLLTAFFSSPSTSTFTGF
row,SMILES,pIC50
1,"COC[C@@H](OC)c1[nH]c(=O)c2sc(-c3cn[nH]c3)c3c2c1CCCO3 (single isomer, unassigned) [Example 39]",> 9.00
2,"C[C@@H](c1[nH]c(=O)c2sc(-c3cn[nH]c3)c3c2c1CCCO3)n1cc(C#N)cn1 (single isomer, unassigned) [Example 26]",> 9.00
3,"C[C@@H]1Cc2c(CN3CC(O)C3)[nH]c(=O)c3sc(-c4cn[nH]c4)c(c23)O1 (single isomer, unassigned) [Example 80]",> 9.00
4,"CC1Cc2c(CN3CC[C@H](F)C3)[nH]c(=O)c3sc(-c4cn[nH]c4)c(c23)O1 (stereo in doubt) [Example 70, (R)-6-(((S)-3-fluoropyrrolidin-1-yl)methyl)-4-methyl-2-(1H-pyrazol-4-yl)-5,7-dihydro-3-oxa-1-thia-7-azaacenaphthylen-8(4H)-one]",> 9.00
5,"Cc1n[nH]cc1-c1sc2c(=O)[nH]c(C)c3c2c1OCCC3 [Example 6, 5-methyl-1-(3-methyl-1H-pyrazol-4-yl)-4,6,7,8-tetrahydro-3H-9-oxa-2-thia-4-azabenzo[cd]azulen-3-one]",8.00 to 9.00
6,"C[C@H](c1[nH]c(=O)c2sc(-c3cn[nH]c3)c3c2c1CCCO3)n1ccnn1 (single isomer, unassigned) [Example 49]",> 9.00
7,"CC[C@](C)(O)c1[nH]c(=O)c2sc(-c3c[nH]nc3C)c3c2c1CCCO3 (single isomer, unassigned) [Example 73]",≤ 8.00
8,"Cc1[nH]c(=O)c2sc(-c3cn[nH]c3)c3c2c1CCO3 [Example 3, 6-methyl-2-(1H-pyrazol-4-yl)-5,7-dihydro-3-oxa-1-thia-7-azaacenaphthylen-8(4H)-one]",8.00 to 9.00
9,"CC(C)(O)c1[nH]c(=O)c2sc(-c3ccncc3)c3c2c1CCCO3 [Example 29, 5-(2-hydroxypropan-2-yl)-1-(pyridin-4-yl)-4,6,7,8-tetrahydro-3H-9-oxa-2-thia-4-azabenzo[cd]azulen-3-one]",> 9.00
10,"COC[C@H](c1[nH]c(=O)c2sc(-c3cn[nH]c3)c3c2c1CCCO3)N1CCC(F)(F)C1 (single isomer, unassigned) [Example 37]",8.00 to 9.00
11,CC(NC1CCC1)c1[nH]c(=O)c2sc(-c3cn[nH]c3)c3c2c1CCCO3 (stereo not shown) [Example 34],> 9.00
12,"O=c1[nH]c(CN2CC[C@H](O)C2)c2c3c(c(-c4ccncc4)sc13)OCCC2 [Example 10, (S)-5-((3-hydroxypyrrolidin-1-yl)methyl)-1-(pyridin-4-yl)-4,6,7,8-tetrahydro-3H-9-oxa-2-thia-4-azabenzo[cd]azulen-3-one]",8.00 to 9.00
13,"O=C(c1[nH]c(=O)c2sc(-c3cn[nH]c3)c3c2c1CCCO3)N1CC(O)C1 [Example 53, 5-(3-hydroxyazetidine-1-carbonyl)-1-(1H-pyrazol-4-yl)-4,6,7,8-tetrahydro-3H-9-oxa-2-thia-4-azabenzo[cd]azulen-3-one]",8.00 to 9.00
14,"O=c1[nH]c(CN2CCCCC2)c2c3c(c(-c4cn[nH]c4)sc13)OCCC2 [Example 23, 5-(piperidin-1-ylmethyl)-1-(1H-pyrazol-4-yl)-4,6,7,8-tetrahydro-3H-9-oxa-2-thia-4-azabenzo[cd]azulen-3-one]",> 9.00
15,"C[C@H]1Cc2c(CN3CC[C@@H]3C)[nH]c(=O)c3sc(-c4cn[nH]c4)c(c23)O1 (single isomer, unassigned) [Example 83]",> 9.00
16,"O=C1CCCN1Cc1[nH]c(=O)c2sc(-c3cn[nH]c3)c3c2c1CCCO3 [Example 41, 5-((2-oxopyrrolidin-1-yl)methyl)-1-(1H-pyrazol-4-yl)-4,6,7,8-tetrahydro-3H-9-oxa-2-thia-4-azabenzo[cd]azulen-3-one]",> 9.00
17,"COC[C@H](c1[nH]c(=O)c2sc(-c3cn[nH]c3)c3c2c1CCCO3)n1cccn1 (single isomer, unassigned) [Example 35]",> 9.00
18,"C[C@@H]1Cc2c(CN3CCC3)[nH]c(=O)c3sc(-c4cn[nH]c4)c(c23)O1 (single isomer, unassigned) [Example 64]",> 9.00
19,"C[C@H](O)c1[nH]c(=O)c2sc(-c3cn[nH]c3)c3c2c1CCCO3 (single isomer, unassigned) [Example 32]",> 9.00

# Continued, values first:
row,pIC50,SMILES
1,> 9.00,"O=c1[nH]c(CN2CCC2)c2c3c(c(-c4ccncc4)sc13)OCCC2 [Example 12, 5-(azetidin-1-ylmethyl)-1-(pyridin-4-yl)-4,6,7,8-tetrahydro-3H-9-oxa-2-thia-4-azabenzo[cd]azulen-3-one]"
2,> 9.00,"C[C@H]1Cc2c(C(C)(C)O)[nH]c(=O)c3sc(-c4cn[nH]c4)c(c23)O1 (single isomer, unassigned) [Example 61]"
3,> 9.00,"COC(=O)Cc1[nH]c(=O)c2sc(-c3cn[nH]c3)c3c2c1CCCO3 [Example 76, methyl 2-(3-oxo-1-(1H-pyrazol-4-yl)-4,6,7,8-tetrahydro-3H-9-oxa-2-thia-4-azabenzo[cd]azulen-5-yl)acetate]"
4,> 9.00,"Cc1[nH]c(=O)c2sc(-c3cn[nH]c3)c3c2c1CC(C)O3 (stereo not shown) [Example 9, 4,6-dimethyl-2-(1H-pyrazol-4-yl)-5,7-dihydro-3-oxa-1-thia-7-azaacenaphthylen-8(4H)-one]"
5,> 9.00,"C[C@H](c1[nH]c(=O)c2sc(-c3cn[nH]c3)c3c2c1CCCO3)n1cc(C#N)cn1 (single isomer, unassigned) [Example 27]"
6,> 9.00,"N#CCc1[nH]c(=O)c2sc(-c3cn[nH]c3)c3c2c1CCCO3 [Example 75, 2-(3-oxo-1-(1H-pyrazol-4-yl)-4,6,7,8-tetrahydro-3H-9-oxa-2-thia-4-azabenzo[cd]azulen-5-yl)acetonitrile]"
7,> 9.00,"Cc1n[nH]cc1-c1sc2c(=O)[nH]c(Cn3cccn3)c3c2c1OCCC3 [Example 20, 2-(3-methyl-1H-pyrazol-4-yl)-7-(pyrazol-1-ylmethyl)-12-oxa-3-thia-6-azatricyclo[6.4.1.0^4,13]trideca-1,4(13),7-trien-5-one]"
8,> 9.00,"C[C@@H](c1[nH]c(=O)c2sc(-c3cn[nH]c3)c3c2c1CCCO3)n1ccnn1 (single isomer, unassigned) [Example 50]"
9,> 9.00,"CC(C)(O)c1[nH]c(=O)c2sc(-c3cn[nH]c3)c3c2c1CC(F)(F)CO3 [Example 45, 10,10-difluoro-7-(1-hydroxy-1-methyl-ethyl)-2-(1H-pyrazol-4-yl)-12-oxa-3-thia-6-azatricyclo[6.4.1.0^4,13]trideca-1,4(13),7-trien-5-one]"
